Experimental data as given in US20210292410A1, “TREATMENT PARADIGM FOR AN ANTI-CD19 ANTIBODY AND VENETOCLAX COMBINATION TREATMENT” (MorphoSys AG, priority 2017, published 2021).

Columns and labels:
CYP17 [1] = experiment: Endocrine panel in prostate cancer patients treated with seviteronel or seviteronel and dexamethasone; assay type: in vivo, human; conditions: seviteronel 600 mg once daily, FIG. 7
Method: (§1) Males that fulfill the Inclusion Criteria captured in Table 1 were administered seviteronel (600 mg; 4×150 mg tablets) once daily until any of the criteria in Table 2 are met. Table 3 captures the clinical screening data and screening schedule for the various screens for each of the male subjects.
as §1, with “tablets) and dexamethasone (0.5 mg)” for “tablets)”
(§2) Blood samples were collected for evaluation of steroid hormone changes as a pharmacodynamics indicator of CYP17 inhibition over time (e.g., DHEA, DHEA-S, androstenedione, testosterone, cortisol, corticosterone, progesterone, pregnenolone, estradiol, estrone and ACTH).

CYP17 [2] = experiment: Endocrine panel (progesterone) in ER+ breast cancer patients; assay type: in vivo, human; conditions: vs. patients treated with abiraterone and prednisone (Abi/Pred), FIG. 20
Method: as §1, with “Subjects” for “Males”, “4” for “1”, “mg for male subjects,” for “mg;”, “4×150 mg tablets; 450 mg for female subjects, 3×150” for “4×150”, “5” for “3”
Subjects that fulfill the Inclusion Criteria captured in Table 4 were administered seviteronel (600 mg for male subjects, 4×150 mg tablets; 450 mg for female subjects, 3×150 mg tablets) and dexamethasone (0.5 mg) once daily until any of the criteria in Table 2 are met. Table 5 captures the clinical screening data and screening schedule for the various screens for each of the male subjects.
as §2

## CC(C)[C@](O)(c1ccc2cc(OC(F)F)c(OC(F)F)cc2c1)c1c[nH]nn1 [SEVI]
CYP17 [1]
  endocrine profile: "up-stream" steroids: limited increase
  endocrine profile: ACTH: modest ACTH increase
  endocrine profile: androgen: modest androgen decline
  endocrine profile: cortisol: modest cortisol decrease
CYP17 [2]
  increase in progesterone: lack of clinically relevant increases in progesterone
